The text below walks through data of EPA's ToxRefDB 2.

The subject of data set [1] is rat. Particulars: Combined chronic toxicity/carcinogenicity; sprague dawley; Oral; Feed; dose end: 24 month; group: systemic; systemic / in life observation / body weight / body weight.
Data set [2] has as its system rat. Particulars: Prenatal developmental toxicity study, sprague dawley, Oral, Gavage/Intubation, dose end: 20 GD.
Data set [3] concerns rat. Conditions: Multigenerational reproductive toxicity study, sprague dawley, Oral, Feed, dose end: 2 generation.
The test system of data set [4] is mouse. Particulars: Carcinogenicity, cd1, Oral, Feed, dose end: 24 month, group: systemic.
The test system of data set [5] is dog. Conditions: Chronic toxicity, beagle, Oral, Capsule, dose end: 12 month, group: systemic.
Data set [6] relates to rat. Particulars: Chronic toxicity, other, Oral, Feed, dose end: 102 week, group: systemic.
For data set [7], the system named is mouse. Particulars: Carcinogenicity, cd1, Oral, Feed, dose end: 80 week, group: systemic.
The test system of data set [8] is dog. Conditions: Chronic toxicity; beagle; Oral; Feed; dose end: 104 week; group: systemic; systemic / clinical chemistry / [other] / [other] + systemic / pathology microscopic / liver / pigmentation + systemic / pathology ….
The subject of data set [9] is dog. Conditions: Subchronic oral toxicity in nonrodent, beagle, Capsule, dose end: 13 week, group: systemic, systemic / clinical chemistry / albumin / albumin + systemic / clinical chemistry / protein / protein + systemic / in life observation / ….
Data set [10] has as its system rat. Conditions: Acute dermal toxicity, other, Topical, dose end: 28 day, group: systemic, systemic / pathology microscopic / thymus / necrosis.
Data set [11] relates to rat. Particulars: Subchronic oral toxicity in rodents, wistar, Feed, dose end: 13 week, group: systemic, systemic / organ weight / spleen / absolute + systemic / organ weight / spleen / relative to body weight + systemic / pathology microscopic….
Data set [12] concerns rat. Conditions: Subchronic oral toxicity in rodents, fischer, Feed, dose end: 13 week, group: systemic.
Data set [13] deals with mouse. Conditions: Multigenerational reproductive toxicity study, cd1, Oral, Feed, dose end: 2 generation.
Data set [14] has as its system mouse. Conditions: Carcinogenicity, b6c3f1, Oral, Feed, dose end: 2 year, group: systemic.
In data set [15] the test system is rat. Particulars: Carcinogenicity, fischer, Oral, Feed, dose end: 2 year, group: systemic, systemic / in life observation / clinical signs / urine.
The test system of data set [16] is mouse. Particulars: Subchronic oral toxicity in rodents, b6c3f1, Feed, dose end: 13 week, group: systemic.
Data set [17] has as its system hamster. Conditions: Chronic toxicity, Oral, Feed, dose end: 24 month, group: systemic.
Data set [18] has as its system rat. Particulars: Subchronic oral toxicity in rodents, sprague dawley, Feed, dose end: 90 day, group: systemic.
The mark [19] stands for this setting: group: developmental, developmental / developmental malformation / bone / misaligned + developmental / developmental malformation / general / hemorrhage + ….
Setting [20] is: group: maternal, systemic / in life observation / body weight / body weight + systemic / in life observation / body weight / body weight gain + systemic / in….
Setting [21] is: group: offspring, systemic / in life observation / body weight / offspring (pup) weight.
[22] abbreviates: group: offspring, systemic / in life observation / body weight / offspring (pup) weight + systemic / organ weight / brain / absolute + systemic / organ weight….
[23] abbreviates: group: parental, systemic / organ weight / liver / relative to body weight + systemic / hematology / hematocrit (hct) / hematocrit (hct) + systemic / ….
Setting [24] is: group: parental, systemic / organ weight / liver / relative to body weight + systemic / in life observation / body weight / body weight + systemic / in life ….
Where [25] appears, read: group: reproductive, reproductive / offspring survival early / litter size / litter size.
The mark [26] stands for this setting: systemic / in life observation / food consumption / food consumption.
Setting [27] is: systemic / in life observation / body weight / body weight gain + systemic / organ weight / liver / relative to body weight.
Setting [28] is: systemic / in life observation / body weight / body weight gain + systemic / organ weight / liver / relative to body weight + systemic / ….
Where [29] appears, read: systemic / clinical chemistry / [other] / [other].
Where [30] appears, read: systemic / clinical chemistry / [other] / [other] + systemic / pathology microscopic / intestine small / pigmentation + systemic / pathology….
[31] abbreviates: systemic / pathology microscopic / stomach / ulcer + systemic / hematology / anemia / anemia - nos + systemic / hematology / hematocrit (hct….
Setting [32] is: systemic / in life observation / clinical signs / urine, discoloration.
Setting [33] is: group: parental, systemic / in life observation / food consumption / food consumption.
[34] abbreviates: group: reproductive, reproductive / offspring survival early / live fetuses / live fetuses + reproductive / reproductive performance / fertility / fertility.
Where [35] appears, read: systemic / in life observation / body weight / body weight + systemic / pathology microscopic / epididymis / atypia cellular + systemic / ….
[36] abbreviates: systemic / in life observation / clinical signs / urine, discoloration + systemic / pathology microscopic / adrenal gland / hyperplasia + ….
Where [37] appears, read: discoloration + systemic / pathology microscopic / kidney / adenoma + systemic / ….
[38] abbreviates: systemic / in life observation / mortality / mortality + systemic / pathology microscopic / kidney / inflammation.
Where [39] appears, read: systemic / in life observation / mortality / mortality + systemic / pathology microscopic / kidney / inflammation + systemic / pathology ….
[40] abbreviates: systemic / in life observation / body weight / body weight gain + systemic / organ weight / heart / relative to body weight.

A word on the LOAEL: it is the lowest tested level that showed an adverse finding. By NOAEL is commonly meant the highest dose or exposure tested at which no adverse effect was seen. On to `CCSC(=O)N(CC(C)C)CC(C)C` [Butylate], for which the LEL in [1] was 100 mg/kg/day; in data set [2] (setting [19]) it was 400 mg/kg/day; in data set [2] (setting [20]) it was 400 mg/kg/day; in data set [3] (setting [22]), 50 mg/kg/day; in [3] (setting [24]), 50 mg/kg/day; in data set [3] (setting [25]), 200 mg/kg/day. Also, the figures for the LEL in data set [4] (setting [26]) and in data set [5] (setting [27]) were 20 mg/kg/day and 25 mg/kg/day, respectively. For the same compound, the LOAEL in data set [1] was 100 mg/kg/day; in data set [2] (setting [19]), 400 mg/kg/day; in data set [2] (setting [20]), 400 mg/kg/day; in data set [3] (setting [22]), 50 mg/kg/day; in data set [3] (setting [24]) it was 50 mg/kg/day; in data set [3] (setting [25]), over 200 mg/kg/day. In addition, the LOAEL in data set [4] (systemic / in life observation / body weight / body weight + systemic / pathology microscopic / kidney / amyloid deposition + systemic / …) was 80 mg/kg/day; in data set [5] (setting [27]) it was 25 mg/kg/day. Also, the NEL in data set [1] stood at 50 mg/kg/day; in [2] (setting [19]) it was 40 mg/kg/day; in data set [2] (setting [20]), 40 mg/kg/day; in data set [3] (setting [21]) it was 10 mg/kg/day; in data set [3] (setting [23]), 10 mg/kg/day; in data set [3] (setting [25]), 50 mg/kg/day. The NEL in data set [4] (setting [26]) is under 20 mg/kg/day; in [5] (setting [28]), 5 mg/kg/day. The NOAEL in data set [1] is 50 mg/kg/day; in [2] (setting [19]), 40 mg/kg/day; in [2] (setting [20]), 40 mg/kg/day; in data set [3] (setting [21]), 10 mg/kg/day; in data set [3] (setting [23]), 10 mg/kg/day; in data set [3] (setting [25]) it was at least 200 mg/kg/day. Also, the NOAEL in data set [4] (systemic / in life observation / food consumption / food consumption + systemic / in life observation / body weight / body weight + systemic…) was found to be 20 mg/kg/day; in data set [5] (setting [28]) it was 5 mg/kg/day.

On to `Oc1cccc2cccnc12.Oc1cccc2cccnc12.[Cu]` [Copper-8-hydroxyquinoline (1:2)], for which the LEL in data set [6] (setting [29]) turned out to be 0.25 mg/kg/day; in [7] (systemic / pathology microscopic / stomach / ulcer + systemic / pathology microscopic / spleen / hematopoietic cell proliferation), 208 mg/kg/day; in data set [8], 25 mg/kg/day; in [9] it was 50 mg/kg/day; in data set [10], 1000 mg/kg/day; in data set [11], 100 mg/kg/day. In addition, the NEL is under 0.25 mg/kg/day in data set [6] (setting [29]); 57.1 mg/kg/day in data set [7] (setting [31]); 5 mg/kg/day in data set [8]; 5 mg/kg/day in data set [9]; 200 mg/kg/day in data set [10]; 30 mg/kg/day in data set [11]. Further, the LOAEL in data set [6] (setting [30]) was 100 mg/kg/day; in data set [7] (systemic / pathology microscopic / stomach / ulcer), 208 mg/kg/day; in data set [8] it was 25 mg/kg/day; in data set [9] it was 50 mg/kg/day; in data set [10], 1000 mg/kg/day; in [11], 100 mg/kg/day. The NOAEL in [6] (setting [30]) amounted to 25 mg/kg/day; in data set [7] (setting [31]), 57.1 mg/kg/day; in data set [8], 5 mg/kg/day; in data set [9] it was 5 mg/kg/day; in [10], 200 mg/kg/day; in data set [11] it was 30 mg/kg/day.

As for `O=C1CN(/N=C/c2ccc([N+](=O)[O-])o2)C(=O)N1` [Nitrofurantoin], the NOAEL in [12] (systemic / in life observation / body weight / body weight + systemic / in life observation / clinical signs / urine, discoloration + …) is 65 mg/kg/day; in data set [13] (setting [21]), at least 213 mg/kg/day; in data set [13] (setting [33]) it was at least 164 mg/kg/day; in data set [13] (setting [34]) it was at least 213 mg/kg/day; in data set [14] (setting [35]), 300 mg/kg/day; in data set [15] (setting [37]), at least 60 mg/kg/day. Moreover, the NOAEL in [16] (systemic / in life observation / body weight / body weight + systemic / pathology microscopic / ovary / necrosis + systemic / in life …) was 375 mg/kg/day. Also, the LOAEL in data set [12] (systemic / in life observation / body weight / body weight + systemic / pathology microscopic / testes / degeneration) was 125 mg/kg/day; in [13] (setting [21]), over 213 mg/kg/day; in data set [13] (setting [33]), over 164 mg/kg/day; in [13] (setting [34]), over 213 mg/kg/day; in data set [14] (setting [35]), 570 mg/kg/day; in data set [15] (setting [37]), over 60 mg/kg/day. In addition, in data set [16] (systemic / in life observation / body weight / body weight + systemic / pathology microscopic / ovary / necrosis + systemic / pathology …), the LOAEL was 750 mg/kg/day. The LEL amounted to 30 mg/kg/day in data set [12] (setting [32]); 99.2 mg/kg/day in data set [13] (setting [21]); 164 mg/kg/day in [13] (setting [33]); 213 mg/kg/day in [13] (setting [34]); 280 mg/kg/day in data set [14] (setting [36]); 30 mg/kg/day in [15] (discoloration). The LEL in data set [16] (systemic / pathology microscopic / testes / aspermatogenesis + systemic / pathology microscopic / testes / degeneration) was 195 mg/kg/day. For the same compound, the NEL in [12] (setting [32]) was under 30 mg/kg/day; in data set [13] (setting [21]), 43.8 mg/kg/day; in data set [13] (setting [33]), 88.7 mg/kg/day; in data set [13] (setting [34]), 99.2 mg/kg/day; in data set [14] (setting [36]) it was under 280 mg/kg/day; in data set [15] (discoloration), under 30 mg/kg/day. Also, the NEL in data set [16] (systemic / pathology microscopic / testes / aspermatogenesis + systemic / pathology microscopic / testes / degeneration + systemic / in life…) amounted to 90 mg/kg/day.

Turning to `O=[N+]([O-])c1ccc(O)cc1C(F)(F)F` [3-Trifluoromethyl-4-nitrophenol], in [17] (setting [38]), the LOAEL was 24.9 mg/kg/day and the NOAEL was under 24.9 mg/kg/day. For the same compound, in [17] (setting [39]), the LEL was determined as 24.9 mg/kg/day and the NEL is under 24.9 mg/kg/day. Moreover, in data set [18] (setting [40]), the LOAEL stood at 146 mg/kg/day, the NEL was 25 mg/kg/day and the NOAEL worked out at 81 mg/kg/day. This compound also displayed an LEL in data set [18] (systemic / organ weight / heart / relative to body weight) of 45 mg/kg/day.
